Data as given in the NIST ThermoML archive (doi:10.1016/j.fluid.2010.05.009).
Numbers after ± are expanded uncertainties.

Experiments:
[1] = 298.15 K; 101.33 kPa; Liquid; Vibrating tube method
[2] = refractive index (Na D-line) (dimensionless); conditions: 298.15 K; 101.33 kPa; Liquid; Standard Abbe refractometry

Compound: CCOS(=O)(=O)[O-].CC[n+]1cccc(C)c1 [1-ethyl-3-methylpyridinium ethylsulfate]
- mass density [1]: 1219.61 ± 0.41 kg/m3
- refractive index [2]: 1.50591 ± 0.00038
